Data reported in patent US20160129089A1, “COMBINATION THERAPY” (ANTISENSE THERAPEUTICS LTD, priority 2013, published 2016).
e = 2'-O-(2-methoxyethyl) (MOE); d = 2'-deoxy (DNA)

System: human growth hormone receptor mRNA
Test: Inhibition of human growth hormone receptor mRNA levels by antisense oligonucleotides, quantitative real-time PCR, MCF7 cells
Type: cell-based
Set-up: concentration or dose not given beside the values
Settings: averages from three experiments
Experimental: “Target site” indicates the first (5′-most) nucleotide number on the particular target sequence to which the oligonucleotide binds. “% Inhib” indicates the inhibitory effect on hGHR mRNA levels by quantitative real-time PCR. Data are averages from three experiments in which MCF7 cells were treated with the antisense oligonucleotides.
All oligonucelotides in Table 1 are chimeric oligonucleotides (“gapmers”), 20 nucleotides in length, composed of a central “gap” region consisting of ten 2′-deoxynucleotides, which is flanked on both sides (5′ and 3′ directions) by five-nucleotide “wings”. The wings are composed of 2′-methoxyethyl (2′-MOE) nucleotides. The internucleoside (backbone) linkages are phosphorothioate (P═S) throughout the oligonucleotide. All uracils are 5-methyluracils (^MeU). Typically, the oligonucleotide is synthesized using 2-methoxyethyl modified thymidines not 5-methyluracils. All pyrimidines are C5 methylated (i.e., U, T, C are C5 methylated).

| Substance | % INHIB (inhibitory effect on hGHR mRNA levels) |
| --- | --- |
| 227483 (antisense AGGCTTTCTGTGGTGATGTA; sugars from the 5' end e5 d10 e5, all phosphorothioate, methylation of C not given here) [compound 227483] | 75% |
| 272308 (antisense GCTGTATGGGTCCTAGGTTC; sugars from the 5' end e5 d10 e5, all phosphorothioate, methylation of C not given here) [compound 272308] | 57% |
| 272307 (antisense GTGAATTTAGGCTCCTTAGA; sugars from the 5' end e5 d10 e5, all phosphorothioate, methylation of C not given here) [compound 272307] | 55% |
| 272360 (antisense TATTAGTTACCTTGAGGAGA; sugars from the 5' end e5 d10 e5, all phosphorothioate, methylation of C not given here) [compound 272360] | 0% |
| 272358 (antisense TCTCCAGATAGAATCTAAAC; sugars from the 5' end e5 d10 e5, all phosphorothioate, methylation of C not given here) [compound 272358] | 53% |
| 272330 (antisense GATGCACTTTTTGGCATCTG; sugars from the 5' end e5 d10 e5, all phosphorothioate, methylation of C not given here) [compound 272330] | 47% |
| 272350 (antisense AGGCTGTTGTGAAATAGTAA; sugars from the 5' end e5 d10 e5, all phosphorothioate, methylation of C not given here) [compound 272350] | 67% |
| 227482 (antisense TTCTGTGGTGATGTAAATGT; sugars from the 5' end e5 d10 e5, all phosphorothioate, methylation of C not given here) [compound 227482] | 53% |
| 227489 (antisense TGTTCAGTTGGTCTGTGCTC; sugars from the 5' end e5 d10 e5, all phosphorothioate, methylation of C not given here) [compound 227489] | 75% |
| 227464 (antisense CCTTTAATCTTTGGAACTGG; sugars from the 5' end e5 d10 e5, all phosphorothioate, methylation of C not given here) [compound 227464] | 58% |
| 227499 (antisense TATAAAAGGGCTTTGTAAAA; sugars from the 5' end e5 d10 e5, all phosphorothioate, methylation of C not given here) [compound 227499] | 14% |
| 272345 (antisense CATCTATTACAAATAACATG; sugars from the 5' end e5 d10 e5, all phosphorothioate, methylation of C not given here) [compound 272345] | 24% |
| 272322 (antisense CTGGCTCATCAATATCTAGC; sugars from the 5' end e5 d10 e5, all phosphorothioate, methylation of C not given here) [compound 272322] | 84% |
| 227501 (antisense GCTATTTTTGGCTATAGAAA; sugars from the 5' end e5 d10 e5, all phosphorothioate, methylation of C not given here) [compound 227501] | 64% |
| 227475 (antisense CCTGCTGGTGTAATGTCGCT; sugars from the 5' end e5 d10 e5, all phosphorothioate, methylation of C not given here) [compound 227475] | 68% |
| 227480 (antisense ATGTAAATGTCCTCTTGGTT; sugars from the 5' end e5 d10 e5, all phosphorothioate, methylation of C not given here) [compound 227480] | 66% |
| 272339 (antisense GTTTTACATATCCAAACTAT; sugars from the 5' end e5 d10 e5, all phosphorothioate, methylation of C not given here) [compound 272339] | 72% |
| 272351 (antisense ATAGAAATGTTGTCAGGCTG; sugars from the 5' end e5 d10 e5, all phosphorothioate, methylation of C not given here) [compound 272351] | 57% |

| Substance | % INHIB (inhibitory effect on hGHR mRNA levels) |
| --- | --- |
| 272318 (antisense TCAGCATTTTAATCCTTTGC; sugars from the 5' end e5 d10 e5, all phosphorothioate, methylation of C not given here) [compound 272318] | 55% |
| 272340 (antisense CATCAACCAAGATTTGGTGA; sugars from the 5' end e5 d10 e5, all phosphorothioate, methylation of C not given here) [compound 272340] | 69% |
| 272337 (antisense AAACATAGCCATTCAATGCT; sugars from the 5' end e5 d10 e5, all phosphorothioate, methylation of C not given here) [compound 272337] | 39% |
| 272319 (antisense ATTTTCCTTCCTTGAGGAGA; sugars from the 5' end e5 d10 e5, all phosphorothioate, methylation of C not given here) [compound 272319] | 67% |
| 272325 (antisense AAGGCATAAGAGATCTGCTT; sugars from the 5' end e5 d10 e5, all phosphorothioate, methylation of C not given here) [compound 272325] | 66% |
| 272331 (antisense CAGTCGCATTGAGTATGAGG; sugars from the 5' end e5 d10 e5, all phosphorothioate, methylation of C not given here) [compound 272331] | 67% |
| 272347 (antisense TCTACACTGATGATACTTTA; sugars from the 5' end e5 d10 e5, all phosphorothioate, methylation of C not given here) [compound 272347] | 62% |
| 272361 (antisense ATTTTCCTTCCTAGAAAATA; sugars from the 5' end e5 d10 e5, all phosphorothioate, methylation of C not given here) [compound 272361] | 10% |
| 272304 (antisense TGCTAAGGATAGCTGCTGTG; sugars from the 5' end e5 d10 e5, all phosphorothioate, methylation of C not given here) [compound 272304] | 48% |
| 272327 (antisense GGACATCCCTGCCTTATTCT; sugars from the 5' end e5 d10 e5, all phosphorothioate, methylation of C not given here) [compound 272327] | 60% |
| 272313 (antisense ATTGCGTGGTGCTTCCCATC; sugars from the 5' end e5 d10 e5, all phosphorothioate, methylation of C not given here) [compound 272313] | 77% |
| 272355 (antisense TTGAGTGTTCCTAAAATGAA; sugars from the 5' end e5 d10 e5, all phosphorothioate, methylation of C not given here) [compound 272355] | 24% |
| 272336 (antisense CAATCACTGCTACTAAACAG; sugars from the 5' end e5 d10 e5, all phosphorothioate, methylation of C not given here) [compound 272336] | 69% |
| 272344 (antisense ACACTCAATTCTAGCTTTTC; sugars from the 5' end e5 d10 e5, all phosphorothioate, methylation of C not given here) [compound 272344] | 60% |
| 272349 (antisense AGTCTTCCAAACACACAGCT; sugars from the 5' end e5 d10 e5, all phosphorothioate, methylation of C not given here) [compound 272349] | 68% |
| 272356 (antisense ATGGAGGCTGGAGGTTCAAA; sugars from the 5' end e5 d10 e5, all phosphorothioate, methylation of C not given here) [compound 272356] | 63% |
| 272343 (antisense AATGCTCTCAAGAATGATGT; sugars from the 5' end e5 d10 e5, all phosphorothioate, methylation of C not given here) [compound 272343] | 48% |
